From patent publication US5750531A, “Pyrimidine derivatives and processes for the preparation thereof” (Yuhan Corporation, priority 1994, dated 1998)
Where a name gives a salt, the structure may show the parent alone.

Columns and labels:
[1] = target: proton pump(H^+ /K^+ ATPase); assay: Inhibition of proton pump(H^+ /K^+ ATPase) activity; assay type: biochemical; details: pH 6.0, 37° C., 30 minutes preincubation and 30 minutes reaction; read-out: IC50 Test compound
Procedure: Test 1: Inhibition of proton pump(H^+ /K^+ ATPase) activity
A proton pump enzyme source was prepared by the same method as in Experiment 1-1 of WO 94/14795. Further, the inhibitory effect of proton pump activity was measured by the same method as in Experiment 1-2 of WO 94/14795.
Namely, the proton pump activity stimulated by Mg^++ was used as a negative comparative group, and the activity stimulated by Mg^++ and K^+ was used as a positive comparative group. The comparative compound was omeprazole.
Test tubes were divided into 4 groups: Group 1 as negative comparative group(n=3), Group 2 as positive comparative group(n=3), Group 3(n=5×2) to be administered with the compound of the present invention and Group 4(n=5×2) to be administered with the comparative compound.
The inhibitory effects of Groups 3 and 4 on proton pump activity were measured by employing the compound prepared in Example and omeperazole, respectively, each of which was dissolved in dimethylsulfoxide at 5 different concentrations.
To each of Groups 1, 2, 3 and 4 were added 100 μl of magnesium chloride(40 mM) dissolved in 40 mM Tris-HCl buffer(pH 6.0) and 100μ of the enzyme source. Then, 50μ of potassium chloride(50 mM) and 50 μl of ammonium chloride(6 mM) dissolved in 40 mM Tris-HCl buffer(pH 6.0) were added to all groups except for Group 1.
10 μl of dimethylsulfoxide was added to each of Groups 1 and 2; and to Group 3 was added 10 μl of the solution in which the compound prepared in Example was dissolved in dimethylsulfoxide at 5 different concentrations(n=5×2). To Group 4, 10 μl of the solution prepared by dissolving omeprazole in dimethylsulfoxide at 5 different concentrations(37.6, 21.4, 12.2, 7.0 and 4.0 μM) was added(n=5×2). 40 mM Tris-HCl buffer(pH=6.0) was added thereto so as to make the total volume 400 μl.
Thereafter, the test tubes of each Group were placed at 37° C. for 30 minutes for the preincubation. 100 μl of ATP solution (6.6 mM) was added until the reaction volume became 500 μl. After the reaction was carried out at 37° C. for 30 minutes, 25% cold trichloroacetic acid was added to terminate the enzyme reaction. The released inorganic phosphate was measured by an automatic analyzer(Express 550, Corning).
The difference between Group 1 and Group 2 represents the proton pump activity activated by K^+ only. The inhibition percentages of Groups 3 and 4 were calculated from Litchfield-wilcoxon equation[see, e.g., J. pharmacol. Exp. Ther., 96, 99(1949)]. The concentrations of the test compounds which inhibit 50% of the proton pump activity are represented as IC50 in Table 1.

[2] = test system: gastric secretion; assay: Inhibition of gastric secretion (pylorus ligation, Shay method); assay type: in vivo, Male Sprague-Dawley rats; details: 20 mg/kg intraduodenally, 5 hours; for Rel. Conc.: acid concentration relative to omeprazole; for Relative Acid Output: acid output relative to omeprazole; for Rel. Vol.: gastric juice volume relative to omeprazole
Procedure: Inhibition of gastric secretion […] Under ether anesthesia, the abdomen was incised, and the pylorus was ligated. […] After closing the abdominal cavity, the rats were placed for 5 hours and then killed by cervical dislocation. The stomach was extracted to obtain gastric juice. The gastric juice was centrifuged at 1,000 g to remove precipitates. The amount and acidity of the gastric juice were measured. Relative volumes, relative acid concentrations and relative acid outputs of the test compounds were calculated from equations(I), (II) and (III) and the results are shown in Table 2. […] Group 3) (II) […] (III)

Row | IC50 [1] [nM] | SMILES | Rel. Conc. [2] | Relative Acid Output [2] | Rel. Vol. [2]
1 | 1400 | Cc1ccc(Nc2nc(C)c(C)c(N3CCc4ccccc4C3C)n2)cc1.Cl (stereo not shown) [Example 25, 5,6-dimethyl-2-(4-methylphenylamino)-4-(1-methyl-1,2,3,4-tetrahydroisoquinolin-2-yl)pyrimidine hydrochloride] | 0.8 | 0.92 | 1.06
2 | 800 | CCc1nc(Nc2ccc(F)cc2C)nc(N2CCc3ccccc3C2C)c1C.Cl (stereo not shown) [Example 26, 5-methyl-6-ethyl-2-(2-methyl-4-fluorophenylamino)-4-(1-methyl-1,2,3,4-tetrahydroisoquinolin-2-yl)pyrimidine hydrochloride] | 0.53 | 0.73 | 0.6
3 | 2100 | CCc1nc(Nc2ccc(F)cc2)nc(N2CCc3ccccc3C2C)c1C.Cl (stereo not shown) [Example 27, 5-methyl-6-ethyl-2-(4-fluorophenylamino)-4-(1-methyl-1,2,3,4-tetrahydroisoquinolin-2-yl)pyrimidine hydrochloride] | 0.61 | 0.81 | 0.7
4 | > 15000 | CCc1nc(N(C)c2ccccc2)nc(N2CCc3ccccc3C2C)c1C.Cl (stereo not shown) [Example 28, 5-methyl-6-ethyl-2-(N-methylphenylamino)-4-(1-methyl-1,2,3,4-tetrahydroisoquinolin-2-yl)pyrimidine hydrochloride] | 0.44 | 0.78 | 0.71
5 | 400 | Cc1cc(F)ccc1Nc1nc2c(c(N3CCc4ccccc4C3C)n1)CCC2 (stereo not shown) [Example 29, hydrochloride] | 0.31 | 0.6 | 0.56
6 | ~8400 | CC1c2ccccc2CCN1c1nc(Nc2ccc(F)cc2)nc2c1CCC2 (stereo not shown) [Example 30, hydrochloride] | 0.2 | 0.39 | 0.33
7 | ~15000 | CC1c2ccccc2CCN1c1nc(N(C)c2ccccc2)nc2c1CCC2 (stereo not shown) [Example 31, 2-(N-methylphenylamino)-4-(1-methyl-1,2,3,4-tetrahydroisoquinolin-2-yl)cyclopenta[d]pyrimidine hydrochloride] | 0.21 | 0.74 | 0.83
8 | 1200 | Cc1cc(F)ccc1Nc1nc2c(c(N3CCc4ccccc4C3C)n1)CCCC2.Cl (stereo not shown) [Example 32, 2-(2-methyl-4-fluorophenylamino)-4-(1-methyl-1,2,3,4-tetrahydroisoquinolin-2-yl)-5,6,7,8-tetrahydroquinazoline hydrochloride] | 0.97 | 0.91 | 1.03
9 | 1000 | Cc1cc(N2CCc3ccccc3C2)nc(Nc2ccc(F)cc2C)n1.Cl [Example 34, 6-methyl-2-(2-methyl-4-fluorophenylamino)-4-(1,2,3,4-tetrahydroisoquinolin-2-yl)pyrimidine hydrochloride] | 1 | 0.99 | 0.99
10 | 2500 | Cc1cc(N2CCc3ccccc3C2)nc(Nc2ccc(F)cc2)n1.Cl [Example 35, 6-methyl-2-(4-fluorophenylamino)-4-(1,2,3,4-tetrahydroisoquinoline-2-yl)pyrimidine hydrochloride] | 0.84 | 0.94 | 1.05
11 | 700 | CCc1cc(N2CCc3ccccc3C2)nc(Nc2ccc(F)cc2C)n1.Cl [Example 37, 6-ethyl-2-(2-methyl-4-fluorophenylamino)-4-(1,2,3,4-tetrahydroisoquinolin-2-yl)pyrimidine hydrochloride] | 0.42 | 0.82 | 0.82
12 | 2200 | CCc1cc(N2CCc3ccccc3C2)nc(Nc2ccc(F)cc2)n1.Cl [Example 38, 6-ethyl-2-(4-fluorophenylamino)-4-(1,2,3,4-tetrahydroisoquinolin-2-yl)pyrimidine hydrochloride] | 0.37 | 0.74 | 0.74
13 | > 15000 | CCc1cc(N2CCc3ccccc3C2)nc(N(C)c2ccccc2)n1.Cl [Example 39, 6-ethyl-2-(N-methylphenylamino)-4-(1,2,3,4-tetrahydroisoquinolin-2-yl)pyrimidine hydrochloride] | 0.18 | 0.56 | 0.58
14 | 700 | CCc1cc(N2CCc3ccccc3C2)nc(Nc2ccccc2C)n1.Cl [Example 40, 6-ethyl-2-(2-methylphenylamino)-4-(1,2,3,4-tetrahydroisoquinolin-2-yl)pyrimidine hydrochloride] | 0.36 | 0.74 | 0.71
15 | 600 | Cc1cc(F)ccc1Nc1nc(C)c(C)c(N2CCc3ccccc3C2)n1.Cl [Example 41, 5,6-dimethyl-2-(2-methyl-4-fluorophenylamino)-4-(1,2,3,4-tetrahydroisoquinolin-2-yl)pyrimidine hydrochloride] | 1.87 | 1.12 | 0.94
16 | 1500 | Cc1nc(Nc2ccc(F)cc2)nc(N2CCc3ccccc3C2)c1C.Cl [Example 42, 5,6-dimethyl-2-(4-fluorophenylamino)-4-(1,2,3,4-tetrahydroisoquinolin-2-yl)pyrimidine hydrochloride] | 1.4 | 1.15 | 1.15
17 | ~11300 | CCc1nc(Nc2ccc(F)cc2C)nc(N2CCc3ccccc3C2)c1C.Cl [Example 44, 5-methyl-6-ethyl-2-(2-methyl-4-fluorophenylamino)-4-(1,2,3,4-tetrahydroisoquinolin-2-yl)pyrimidine hydrochloride] | 0.33 | 0.41 | 0.27
18 | 3100 | CCc1nc(Nc2ccc(F)cc2)nc(N2CCc3ccccc3C2)c1C.Cl [Example 45, 5-methyl-6-ethyl-2-(4-fluorophenylamino)-4-(1,2,3,4-tetrahydroisoquinolin-2-yl)pyrimidine hydrochloride] | 0.75 | 0.89 | 0.84
19 | ~19200 | CCc1nc(N(C)c2ccccc2)nc(N2CCc3ccccc3C2)c1C.Cl [Example 46, 5-methyl-6-ethyl-2-(N-methylphenylamino)-4-(1,2,3,4-tetrahydroisoquinolin-2-yl)pyrimidine hydrochloride] | 0.44 | 0.74 | 0.73
20 | ~5000 | Cc1cc(F)ccc1Nc1nc2c(c(N3CCc4ccccc4C3)n1)CCC2 [Example 47, 2-(2-methyl-4-fluorophenylamino)-4-(1,2,3,4-tetrahydroisoquinolin-2-yl)cyclopenta[d]pyrimidine hydrochloride] | 0.14 | 0.38 | 0.38
21 | ~5500 | Cc1cc(F)ccc1Nc1nc2c(c(N3CCc4ccccc4C3)n1)CCCC2.Cl [Example 48, 2-(2-methyl-4-fluorophenylamino)-4-(1,2,3,4-tetrahydroisoquinolin-2-yl)-5,6,7,8-tetrahydroquinazoline hydrochloride] | 0.04 | 0.16 | 0.17
22 | ~10800 | Cl.Fc1ccc(Nc2nc3c(c(N4CCc5ccccc5C4)n2)CCCC3)cc1 [Example 49, 2-(4-fluorophenylamino)-4-(1,2,3,4-tetrahydroisoquinolin-2-yl)-5,6,7,8-tetrahydroquinazoline hydrochloride] | 0.02 | 0.16 | 0.2
